Measured values taken from patent US20250011318A1 (ARCUS BIOSCIENCES, INC., priority 2023, published 2025).

How the values were obtained:
[1] = tested on: Jurkat cells; experiment: IL-2 secretion assay in CD3/CD28-activated Jurkat cells (AlphaLISA); format: cell-based, human; conditions: Homo sapiens, CD3/CD28 T Cell Activator, 24 h, IL-2 AlphaLISA
In short: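 Jurkat cells (50,000/well) preincubated 1 h at 37° C with compound (16-point 1:2 series, final 10 μM to 300 pM) in Opti-MEM, then stimulated with CD3/CD28 activator for 24 h. Supernatant IL-2 read by AlphaLISA; EC50 from 4-parameter logistic fit.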

[2] = molecular target: T1, Cbl-b (Homo sapiens, UniProt Q13191); experiment: Cbl-b probe displacement HTRF binding assay; conditions: 0.4 nM biotinylated Cbl-b, 150 nM BODIPY probe
T1 construct: biotin (biotinylated)
T1 sequence (Q13191 whole entry, species assumed): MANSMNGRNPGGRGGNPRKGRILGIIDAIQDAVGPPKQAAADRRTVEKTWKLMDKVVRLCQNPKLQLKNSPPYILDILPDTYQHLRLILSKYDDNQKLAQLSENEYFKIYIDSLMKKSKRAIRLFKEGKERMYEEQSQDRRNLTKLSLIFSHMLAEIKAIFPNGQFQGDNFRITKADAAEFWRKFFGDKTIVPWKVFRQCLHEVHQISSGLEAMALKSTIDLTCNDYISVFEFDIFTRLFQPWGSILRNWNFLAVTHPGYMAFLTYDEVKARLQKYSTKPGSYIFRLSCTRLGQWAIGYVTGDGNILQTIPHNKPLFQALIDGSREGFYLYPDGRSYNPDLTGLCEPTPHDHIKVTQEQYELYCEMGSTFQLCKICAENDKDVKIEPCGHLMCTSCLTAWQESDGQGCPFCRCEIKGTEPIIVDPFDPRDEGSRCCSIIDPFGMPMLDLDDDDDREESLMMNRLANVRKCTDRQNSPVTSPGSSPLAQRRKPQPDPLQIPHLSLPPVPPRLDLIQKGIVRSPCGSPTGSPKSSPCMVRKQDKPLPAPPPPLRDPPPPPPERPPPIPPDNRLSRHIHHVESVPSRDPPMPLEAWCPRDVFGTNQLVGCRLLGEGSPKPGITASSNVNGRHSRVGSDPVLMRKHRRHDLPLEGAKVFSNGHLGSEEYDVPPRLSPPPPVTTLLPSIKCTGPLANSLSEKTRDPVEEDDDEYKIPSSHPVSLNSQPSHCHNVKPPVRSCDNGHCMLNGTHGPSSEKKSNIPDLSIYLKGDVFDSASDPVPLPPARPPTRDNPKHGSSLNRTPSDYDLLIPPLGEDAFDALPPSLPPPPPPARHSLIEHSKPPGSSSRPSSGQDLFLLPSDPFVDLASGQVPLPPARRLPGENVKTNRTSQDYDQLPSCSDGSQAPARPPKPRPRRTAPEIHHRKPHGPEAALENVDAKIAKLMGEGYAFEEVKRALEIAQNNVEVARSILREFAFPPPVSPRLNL
In short: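 Biotinylated Cbl-b (0.4 nM) preincubated 60 min at RT with compound (20-point 1:2 series, 10 μM top), then 150 nM BODIPY probe for 15 min, then streptavidin-terbium detection. Buffer: 20 mM Hepes, 150 mM NaCl, 0.01% Triton X-100, 0.5 mM TCEP, 0.01% BSA. Loss of HTRF signal gave IC50 via four-parameter fit.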

SMILES	EC50 [1] [nM]	IC50 [2] [nM]
Cn1cnnc1-c1cc(F)ccc1-c1cc(C2CC2)nc(-n2cc(C#N)c3cc(CC4(O)CCCCC4)[nH]c3c2=O)c1 [Example 96, 6-{6-cyclopropyl-4-[4-fluoro-2-(4-methyl-4H-1,2,4-triazol-3-yl)phenyl]-2-pyridyl}-2-[(1-hydroxycyclohexyl)methyl]-7-oxo-1,6-dihydro-1,6-diaza-4-indenecarbonitrile]	< 100	< 100
Cc1cccc(C(O)c2cc3c(C#N)cn(-c4cc(-c5ccc(F)cc5-c5nncn5C)cc(C5CC5)n4)c(=O)c3[nH]2)n1 (centres unmarked) [Example 93, 6-{6-cyclopropyl-4-[4-fluoro-2-(4-methyl-4H-1,2,4-triazol-3-yl)phenyl]-2-pyridyl}-2-[hydroxy(6-methyl-2-pyridyl)methyl]-7-oxo-1,6-dihydro-1,6-diaza-4-indenecarbonitrile]	< 100	< 100
Cn1cnnc1-c1cc(F)ccc1-c1cc(C2CC2)nc(-n2cc(C(F)(F)F)c3nc(CC4CCC4)[nH]c3c2=O)c1 [Example 42, 2-(Cyclobutylmethyl)-5-{6-cyclopropyl-4-[4-fluoro-2-(4-methyl-4H-1,2,4-triazol-3-yl)phenyl]-2-pyridyl}-7-(trifluoromethyl)-3,5-dihydro-1,3,5-triaza-4-indenone]	< 100	< 100
CO[C@@H](C)CNCc1cc2ncn(-c3cc(-c4ccc(C#N)cc4-n4nncc4CF)cc(C4CC4)n3)c(=O)c2[nH]1 [Example 139, 4-[2-(2-{[(S)-2-methoxypropylamino]methyl}-7-oxo-1,6-dihydro-1,4,6-triaza-6-indenyl)-6-cyclopropyl-4-pyridyl]-3-[5-(fluoromethyl)-1H-1,2,3-triazol-1-yl]benzonitrile]	< 100	< 100
Cn1cnnc1-c1cc(F)ccc1-c1cc(C2CC2)nc(-n2cc(C(F)(F)F)c3nc(C4CC4)[nH]c3c2=O)c1 [Example 39, 2-cyclopropyl-5-[6-cyclopropyl-4-[4-fluoro-2-(4-methyl-1,2,4-triazol-3-yl)phenyl]pyridin-2-yl]-7-(trifluoromethyl)-3H-imidazo[4,5-c]pyridin-4-one]	< 100	< 100
Cc1cccnc1-c1cc(C#N)ccc1-c1cc(C2CC2)nc(-n2cc(C3CC3)c3cc(CN4CCC[C@H](C)C4)[nH]c3c2=O)c1 [Example 74, 4-[2-cyclopropyl-6-[4-cyclopropyl-2-[[(3S)-3-methylpiperidin-1-yl]methyl]-7-oxo-1H-pyrrolo[2,3-c]pyridin-6-yl]pyridin-4-yl]-3-(3-methylpyridin-2-yl)benzonitrile]	100 to 1000	< 100
CCOCCNCc1cc2ncn(-c3cc(-c4ccc(F)cc4-c4nncn4C)cc(C4CC4)n3)c(=O)c2[nH]1 [Example 31, 6-{6-cyclopropyl-4-[4-fluoro-2-(4-methyl-4H-1,2,4-triazol-3-yl)phenyl]-2-pyridyl}-2-[(2-ethoxyethylamino)methyl]-1,6-dihydro-1,4,6-triaza-7-indenone]	< 100	< 100
CC(c1cc2c(S(C)(=O)=O)cn(-c3cc(-c4ccc(C#N)cc4-c4nccn4C)cc(C4CC4)n3)c(=O)c2[nH]1)N1CCC[C@H](C)C1 (mixture of isomers) [Example 101, 4-[2-(2-{1-[(S)-3-methyl-1-piperidyl]ethyl}-4-mesyl-7-oxo-1,6-dihydro-1,6-diaza-6-indenyl)-6-cyclopropyl-4-pyridyl]-3-(1-methyl-2-imidazolyl)benzonitrile]	< 100	< 100
C[C@@H]1CN(Cc2cc3c(C4CC4)cn(-c4cc(-c5ccc(F)cc5-c5nccn5C)cc(C#N)n4)c(=O)c3[nH]2)CCO1 [Example 63, 6-(2-{[(R)-2-methyl-4-morpholinyl]methyl}-4-cyclopropyl-7-oxo-1,6-dihydro-1,6-diaza-6-indenyl)-4-[4-fluoro-2-(1-methyl-2-imidazolyl)phenyl]-2-pyridinecarbonitrile]	100 to 1000	< 100
CNCCN(C)c1cc(-c2ccc(C#N)cc2-c2nncn2C)cc(-n2cc(C3CC3)c3cc(CN4CCC[C@H](C)C4)[nH]c3c2=O)n1 [Example 3, 4-(2-{N-methyl[2-(methylamino)ethyl]amino}-6-(2-{[(S)-3-methyl-1-piperidyl]methyl}-4-cyclopropyl-7-oxo-1,6-dihydro-1,6-diaza-6-indenyl)-4-pyridyl)-3-(4-methyl-4H-1,2,4-triazol-3-yl)benzonitrile]	1000 to 5000	100 to 1000
Cn1cnnc1-c1cc(F)ccc1-c1cc(C2CC2)nc(-n2cc(C(F)(F)F)c3cc(CO)[nH]c3c2=O)c1 [Example 137, 6-[6-cyclopropyl-4-[4-fluoro-2-(4-methyl-1,2,4-triazol-3-yl)phenyl]pyridin-2-yl]-2-(hydroxymethyl)-4-(trifluoromethyl)-1H-pyrrolo[2,3-c]pyridin-7-one]	< 100	< 100
Cn1cnnc1-c1cc(F)ccc1-c1cc(C2CC2)nc(-n2cc(C#N)c3cc([C@@H](N)C(F)(F)F)[nH]c3c2=O)c1 [Example 97, 2-[(R)-1-amino-2,2,2-trifluoroethyl]-6-{6-cyclopropyl-4-[4-fluoro-2-(4-methyl-4H-1,2,4-triazol-3-yl)phenyl]-2-pyridyl}-7-oxo-1,6-dihydro-1,6-diaza-4-indenecarbonitrile]	100 to 1000	< 100
Cn1cnnc1-c1cc(F)ccc1-c1cc(C2CC2)nc(-n2cc(C#N)c3c4c([nH]c3c2=O)CCCC4)c1 [Example 144, 2-{6-Cyclopropyl-4-[4-fluoro-2-(4-methyl-4H-1,2,4-triazol-3-yl)phenyl]-2-pyridyl}-1-oxo-2,5,6,7,8,9-hexahydroβ-carboline-4-carbonitrile]	< 100	< 100
Cc1ccnnc1-c1cc(C#N)ccc1-c1cc(C2CC2)nc(-n2cc(C3CC3)c3cc(CNC4(C)CCC4)[nH]c3c2=O)c1 [Example 75, 4-[2-Cyclopropyl-6-[4-cyclopropyl-2-[[(1-methylcyclobutyl)amino]methyl]-7-oxo-1H-pyrrolo[2,3-c]pyridin-6-yl]pyridin-4-yl]-3-(4-methylpyridazin-3-yl)benzonitrile]	< 100	< 100
Cn1cc(C(F)(F)F)nc1-c1cc(C#N)ccc1-c1cc(C2CC2)nc(-n2cc(C3CC3)c3cc(CNC4(C)CCC4)[nH]c3c2=O)c1 [Example 67, 4-(6-cyclopropyl-2-{4-cyclopropyl-2-[(1-methylcyclobutylamino)methyl]-7-oxo-1,6-dihydro-1,6-diaza-6-indenyl}-4-pyridyl)-3-[1-methyl-4-(trifluoromethyl)-2-imidazolyl]benzonitrile]	100 to 1000	< 100
Cn1cnnc1-c1cc(F)ccc1-c1cc(C2CC2)nc(-n2cnc3cc(CNCC(F)(F)F)[nH]c3c2=O)c1 [Example 33, 6-{6-cyclopropyl-4-[4-fluoro-2-(4-methyl-4H-1,2,4-triazol-3-yl)phenyl]-2-pyridyl}-2-[(2,2,2-trifluoroethylamino)methyl]-1,6-dihydro-1,4,6-triaza-7-indenone]	100 to 1000	< 100
C[C@H]1CCCN(Cc2cc3c(C4CC4)cn(-c4cc(-c5ccc(F)cc5-c5cncn5C)cc(Cl)n4)c(=O)c3[nH]2)C1 [Example 23, 2-{[(S)-3-methyl-1-piperidyl]methyl}-6-{6-chloro-4-[4-fluoro-2-(1-methyl-5-imidazolyl)phenyl]-2-pyridyl}-4-cyclopropyl-1,6-dihydro-1,6-diaza-7-indenone]	> 5000	1000 to 5000
Cn1ccnc1-c1cc(F)ccc1-c1cc(C2CC2)nc(-n2cc(C3CC3)c3cc(CN[C@@H]4CCCOC4)[nH]c3c2=O)c1 [Example 57, 2-{[(R)-tetrahydro-2H-pyran-3-ylamino]methyl}-4-cyclopropyl-6-{6-cyclopropyl-4-[4-fluoro-2-(1-methyl-2-imidazolyl)phenyl]-2-pyridyl}-1,6-dihydro-1,6-diaza-7-indenone]	< 100	< 100
Cn1ccnc1-c1cc(F)ccc1-c1cc(C2CC2)nc(-n2cc(C3CC3)c3cc(CNC(C)(C)C)[nH]c3c2=O)c1 [Example 62, 2-[(tert-butylamino)methyl]-4-cyclopropyl-6-{6-cyclopropyl-4-[4-fluoro-2-(1-methyl-2-imidazolyl)phenyl]-2-pyridyl}-1,6-dihydro-1,6-diaza-7-indenone]	< 100	< 100
Cn1ccnc1-c1cc(F)ccc1-c1cc(C2CC2)nc(-n2cc(C3CC3)c3cc(CN4CCC[C@H](O)C4)[nH]c3c2=O)c1 [Example 58, 2-{[(S)-3-hydroxy-1-piperidyl]methyl}-4-cyclopropyl-6-{6-cyclopropyl-4-[4-fluoro-2-(1-methyl-2-imidazolyl)phenyl]-2-pyridyl}-1,6-dihydro-1,6-diaza-7-indenone]	< 100	< 100
Cn1cnnc1-c1cc(F)ccc1-c1cc(C2CC2)nc(-n2cc(C(F)(F)F)c3c(C#N)c[nH]c3c2=O)c1 [Example 135, 6-[6-cyclopropyl-4-[4-fluoro-2-(4-methyl-1,2,4-triazol-3-yl)phenyl]pyridin-2-yl]-7-oxo-4-(trifluoromethyl)-1H-pyrrolo[2,3-c]pyridine-3-carbonitrile]	< 100	< 100
Cc1ccnnc1-c1cc(C#N)ccc1-c1cc(C2CC2)nc(-n2cc(C3CC3)c3cc(CN4CCC[C@H](C)C4)[nH]c3c2=O)c1 [Example 77]	< 100	< 100
